Patent US9809537B2, “Glycosidase inhibitors and uses thereof” (Alectos Therapeutics Inc., priority 2012, dated 2017)

Legend:
human O-GlcNAcase = target: T1, human O-GlcNAcase (Homo sapiens, UniProt O60502); assay: Fluorescence-based assay for KI values for inhibition of O-GlcNAcase activity; format: biochemical; settings: purified human O-GlcNAcase, 4-methylumbelliferyl GlcNAc substrate, pH 7.0, Cheng-Prusoff; read-out: Fluorescence-based hOGA Ki
T1 sequence (O60502 1-916): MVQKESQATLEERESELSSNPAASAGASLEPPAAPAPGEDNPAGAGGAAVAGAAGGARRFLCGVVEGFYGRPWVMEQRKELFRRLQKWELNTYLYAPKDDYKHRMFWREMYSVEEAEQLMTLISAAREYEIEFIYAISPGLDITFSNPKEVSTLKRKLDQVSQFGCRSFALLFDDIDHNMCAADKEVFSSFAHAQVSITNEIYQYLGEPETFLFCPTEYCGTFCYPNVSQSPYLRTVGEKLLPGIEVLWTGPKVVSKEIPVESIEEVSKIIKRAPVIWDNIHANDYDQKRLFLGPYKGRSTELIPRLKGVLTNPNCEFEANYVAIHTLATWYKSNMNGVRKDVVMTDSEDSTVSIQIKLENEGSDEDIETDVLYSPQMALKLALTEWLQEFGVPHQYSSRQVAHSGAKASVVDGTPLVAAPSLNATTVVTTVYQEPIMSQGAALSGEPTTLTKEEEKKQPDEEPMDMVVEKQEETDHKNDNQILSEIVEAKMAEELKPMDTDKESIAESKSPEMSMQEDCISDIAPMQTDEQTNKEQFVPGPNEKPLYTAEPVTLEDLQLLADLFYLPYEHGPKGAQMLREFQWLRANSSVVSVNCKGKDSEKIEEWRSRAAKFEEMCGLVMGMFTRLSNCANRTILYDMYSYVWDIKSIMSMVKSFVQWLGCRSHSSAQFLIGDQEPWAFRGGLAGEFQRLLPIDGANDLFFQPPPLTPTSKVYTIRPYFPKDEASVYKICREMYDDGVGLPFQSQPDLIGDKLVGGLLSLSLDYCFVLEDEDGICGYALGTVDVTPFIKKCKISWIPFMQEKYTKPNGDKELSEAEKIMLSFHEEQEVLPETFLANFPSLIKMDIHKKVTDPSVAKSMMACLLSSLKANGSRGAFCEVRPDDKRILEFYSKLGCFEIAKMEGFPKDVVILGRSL
Method: Assay for Determination of KI Values for Inhibition of O-GlcNAcase Activity
Experimental Procedure for Kinetic Analyses:
Enzymatic reactions were carried out in a reaction containing 50 mM NaH2PO4, 100 mM NaCl and 0.1% BSA (pH 7.0) using 2 mM 4-Methylumbelliferyl N-acetyl-β-D-glucosaminide dihydrate (Sigma M2133) dissolved in ddH2O, as a substrate. The amount of purified human O-GlcNAcase enzyme used in the reaction was 0.7 nM. Test compound of varying concentrations was added to the enzyme prior to initiation of the reaction. The reaction was performed at room temperature in a 96-well plate and was initiated with the addition of substrate. The production of fluorescent product was measured every 60 sec for 45 min with a Tecan Infinite M200 plate-reader with excitation at 355 nm and emission detected at […], with 4-Methylumbelliferone (Sigma M1381) used to produce a standard curve. The slope of product production was determined for each concentration of compound tested and plotted, using standard curve fitting algorithms for sigmoidal dose response curves. The values for a four parameter logistic curve fit of the data were determined.
KI values were determined using the Cheng-Prusoff equation; the Km of O-GlcNAcase for substrate was 0.2 mM.

[1] = Apparent permeability (Papp), bi-directional transport; format: in vitro ADME; settings: pig, LLC-PK1, t=3 h, average of A to B and B to A, read-out: Papp LLC-PK1 cells
Method: Assay for Determination of Apparent Permeability (Papp)
Bi-directional transport is evaluated in LLC-PK1 cells in order to determine apparent permeability (Papp). LLC-PK1 cells can form a tight monolayer and therefore can be used to assess vectorial transport of compounds from basolateral to apical (B→A) and from apical to basolateral (A→B).
To determine Papp, LLC-PK1 cells are cultured in 96-well transwell culture plates (Millipore). Solutions containing the test compounds (1 μM) are prepared in Hank's Balanced Salt Solution with 10 mM HEPES. Substrate solution (150 μL) is added to either the apical (A) or the basolateral (B) compartment of the culture plate, and buffer (150 μL) is added to the compartment opposite to that containing the compound. At t=3 h, 50 μL samples are removed from both sides of monolayers dosed with test compound and placed in 96 well plates, scintillant (200 μL) or internal standard (100 μL labetolol 1 μM) is added to the samples and concentration is determined by liquid scintillation counting in a MicroBeta Wallac Trilux scintillation counter (Perkin Elmer Life Sciences, Boston, Mass.) or by LCMS/MS (Applied Biosystems SCIEX API 5000 triple quadruple mass spectrometer). [^3H]Verapamil (1 μM) is used as the positive control. The experiment is performed in triplicate.
The apparent permeability, Papp, is calculated by the following formula for samples taken at t=3 h:
[formula] Where: Volume of Receptor Chamber is 0.15 mL; Area of membrane is 0.11 cm^2; the Initial Concentration is the sum of the concentration measured in the donor plus concentration measured in receiver compartments at t=3 h; A in Concentration is concentration in the receiver compartment at 3 h; and A in Time is the incubation time (3×60×60=10800 s). Papp is expressed as 10^−6 cm/s. The Papp (LLC-PK1 cells) are the average of the Papp for transport from A to B and Papp for transport from B to A at t=3 h: […]

Ki (human O-GlcNAcase) [nM] | Papp at 3 h, 1 μM [1] [×10⁻⁶ cm/s] | SMILES
132 | – | CCNC(=O)C[C@@H]1[C@@H](O)[C@H](O)[C@@H](CO)N1CCCc1ccc(OC)cc1 [Example 11, 2-((2R,3R,4R,5R)-3,4-dihydroxy-5-(hydroxymethyl)-1-(3-(4-methoxyphenyl)propyl)pyrrolidin-2-yl)-N-ethylacetamide]
8.3 | – | CNC(=O)C[C@@H]1[C@H](O)[C@H](O)[C@@H](CO)N1CCCc1ccccc1 [Example 13, 2-((2R,3S,4R,5R)-3,4-dihydroxy-5-(hydroxymethyl)-1-(3-phenylpropyl)pyrrolidin-2-yl)-N-methylacetamide]
343 | – | CC(=O)NCC1[C@@H](O)[C@H](O)[C@@H](CO)N1CCc1ccccc1 (stereo partly drawn) [reference compound]
1030 | – | CCCCN1C(CNC(C)=O)[C@@H](O)[C@H](O)[C@H]1CO (stereo partly drawn) [reference compound]
619 | < 1.6 | CCCCCCN1C(CNC(C)=O)[C@@H](O)[C@H](O)[C@H]1CO (stereo partly drawn) [reference compound]
108 | – | CC(=O)NC[C@H]1N[C@H](CO)[C@@H](O)[C@@H]1O [reference compound]
60 | – | CCNC(=O)C[C@@H]1[C@@H](O)[C@H](O)[C@@H](CO)N1CCC(c1ccccc1)c1ccccc1 [Example 12, 2-((2R,3R,4R,5R)-1-(3,3-diphenylpropyl)-3,4-dihydroxy-5-(hydroxymethyl)pyrrolidin-2-yl)-N-ethylacetamide]
2020 | – | CCCN1C(CNC(C)=O)[C@@H](O)[C@H](O)[C@H]1CO (stereo partly drawn) [reference compound]

The remaining lines, values behind:

SMILES | Ki (human O-GlcNAcase) [nM] | Papp at 3 h, 1 μM [1] [×10⁻⁶ cm/s]
CC(=O)NC[C@@H]1[C@@H](O)[C@H](O)[C@@H](CO)N1Cc1cccnc1 [Example 7, N-(((2R,3R,4R,5R)-3,4-dihydroxy-5-(hydroxymethyl)-1-(pyridin-3-ylmethyl)pyrrolidin-2-yl)methyl)acetamide] | 2690 | –
CC(=O)NC[C@@H]1[C@@H](O)[C@H](O)[C@@H](CO)N1CCc1ccc(-c2ccccc2)cc1 [Example 4, N-(((2R,3R,4R,5R)-1-(2-([1,1′-biphenyl]-4-yl)ethyl)-3,4-dihydroxy-5-(hydroxymethyl)pyrrolidin-2-yl)methyl)acetamide] | 79 | 4.4
CC(=O)NC[C@@H]1[C@@H](O)[C@H](O)[C@@H](CO)N1Cc1ccc(-c2ccccc2)cc1 [Example 9, N-(((2R,3R,4R,5R)-1-([1,1′-biphenyl]-4-ylmethyl)-3,4-dihydroxy-5-(hydroxymethyl)pyrrolidin-2-yl)methyl)acetamide] | 4560 | –
CC(=O)NC[C@@H]1[C@@H](O)[C@H](O)[C@@H](CO)N1CCCCc1ccccc1 [Example 5, N-(((2R,3R,4R,5R)-3,4-dihydroxy-5-(hydroxymethyl)-1-(4-phenylbutyl)pyrrolidin-2-yl)methyl)acetamide] | 172 | < 1.6
COc1ccc(CCCN2[C@H](CO)[C@@H](O)[C@H](O)[C@H]2CNC(C)=O)cc1 [Example 2, N-(((2R,3R,4R,5R)-3,4-dihydroxy-5-(hydroxymethyl)-1-(3-(4-methoxyphenyl)propyl)pyrrolidin-2-yl)methyl)acetamide] | 106 | 2.6
CNC(=O)C[C@@H]1[C@@H](O)[C@H](O)[C@@H](CO)N1CCCc1ccccc1 [Example 10, 2-((2R,3R,4R,5R)-3,4-dihydroxy-5-(hydroxymethyl)-1-(3-phenylpropyl)pyrrolidin-2-yl)-N-methylacetamide] | 55 | –
CC(=O)NC[C@@H]1[C@@H](O)[C@H](O)[C@@H](CO)N1CCCc1ccccc1 [Example 1, N-(((2R,3R,4R,5R)-3,4-dihydroxy-5-(hydroxymethyl)-1-(3-phenylpropyl)pyrrolidin-2-yl)methyl)acetamide] | 369 | –
CC(=O)NC[C@@H]1[C@@H](O)[C@H](O)[C@@H](CO)N1CCC(c1ccccc1)c1ccccc1 [Example 6, N-(((2R,3R,4R,5R)-1-(3,3-diphenylpropyl)-3,4-dihydroxy-5-(hydroxymethyl)pyrrolidin-2-yl)methyl)acetamide] | 41 | –
CC(=O)NC[C@@H]1[C@@H](O)[C@H](O)[C@@H](CO)N1Cc1ccccn1 [Example 8, N-(((2R,3R,4R,5R)-3,4-dihydroxy-5-(hydroxymethyl)-1-(pyridin-2-ylmethyl)pyrrolidin-2-yl)methyl)acetamide] | 3020 | –
